Experimental data: the supplement of paper PMC10307832

How the values were obtained:
Test in all cases: relative viability (nuclei count vs DMSO), 5 days (fraction); higher = more cells survive
BEN = test system: BEN
Summary of the method: (§1)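 One day after seeding in 1536-well plates, lung cancer cell lines were dosed by pin tool. Dosing was either single-drug or a fixed anchor-drug dose plus five library-drug doses (not always all listed) in √10 steps. After 5 days, nuclei were stained in one fix-and-stain step and counted on 4× images, and relative viability is the nuclei count of treated wells over that of vehicle wells, given as the median of duplicate plates.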

NCI-H838 = test system: NCI-H838
Summary of the method: as §1

SK-LU-1 = test system: SK-LU-1
Summary of the method: as §1

LOU-NH91 = test system: LOU-NH91
Summary of the method: as §1

NCI-H1437 = test system: NCI-H1437
Summary of the method: as §1

NCI-H1651 = test system: NCI-H1651
Summary of the method: as §1

NCI-H1975 = test system: NCI-H1975
Summary of the method: as §1

NCI-H1734 = test system: NCI-H1734
Summary of the method: as §1

NCI-H1563 = test system: NCI-H1563
Summary of the method: as §1

HCC-366 = test system: HCC-366
Summary of the method: as §1

COR-L23 = test system: COR-L23
Summary of the method: as §1

NCI-H2023 = test system: NCI-H2023
Summary of the method: as §1

NCI-H358 = test system: NCI-H358
Summary of the method: as §1

NCI-H441 = test system: NCI-H441
Summary of the method: as §1

NCI-H1650 = test system: NCI-H1650
Summary of the method: as §1

NCI-H1355 = test system: NCI-H1355
Summary of the method: as §1

NCI-H460 = test system: NCI-H460
Summary of the method: as §1

LU99A = test system: LU99A
Summary of the method: as §1

NCI-H2085 = test system: NCI-H2085
Summary of the method: as §1

CAL-12T = test system: CAL-12T
Summary of the method: as §1

O=c1cc(N2CCOCC2)oc2c(-c3cccc4c3sc3ccccc34)cccc12 + C[C@@H](Oc1cc(-c2cnn(C3CCNCC3)c2)cnc1N)c1c(Cl)ccc(F)c1Cl [Crizotinib] (partner 1 µM)
relative viability (BEN; first compound 0.01 µM): 0.853 | relative viability (BEN; first compound 0.03162 µM): 0.892 | relative viability (BEN; first compound 0.1 µM): 0.877 | relative viability (BEN; first compound 0.3162 µM): 0.951 | relative viability (BEN; first compound 1 µM): 0.893 | relative viability (NCI-H838; first compound 0.01 µM): 0.876 | relative viability (NCI-H838; first compound 0.03162 µM): 0.77 | relative viability (NCI-H838; first compound 0.1 µM): 0.849 | relative viability (NCI-H838; first compound 0.3162 µM): 0.744 | relative viability (NCI-H838; first compound 1 µM): 0.787 | relative viability (SK-LU-1; first compound 0.03162 µM): 0.897 | relative viability (SK-LU-1; first compound 0.1 µM): 0.828 | relative viability (SK-LU-1; first compound 0.3162 µM): 0.993 | relative viability (SK-LU-1; first compound 1 µM): 0.877 | relative viability (LOU-NH91; first compound 0.01 µM): 0.705 | relative viability (LOU-NH91; first compound 0.03162 µM): 0.695 | relative viability (LOU-NH91; first compound 0.1 µM): 0.717 | relative viability (LOU-NH91; first compound 0.3162 µM): 0.738 | relative viability (LOU-NH91; first compound 1 µM): 0.698 | relative viability (NCI-H1437; first compound 0.01 µM): 0.963 | relative viability (NCI-H1437; first compound 0.03162 µM): 0.896 | relative viability (NCI-H1437; first compound 0.1 µM): 0.959 | relative viability (NCI-H1437; first compound 0.3162 µM): 0.915 | relative viability (NCI-H1437; first compound 1 µM): 0.82 | relative viability (NCI-H1651; first compound 0.01 µM): 0.878 | relative viability (NCI-H1651; first compound 0.03162 µM): 0.92 | relative viability (NCI-H1651; first compound 0.1 µM): 0.948 | relative viability (NCI-H1651; first compound 0.3162 µM): 0.853 | relative viability (NCI-H1651; first compound 1 µM): 0.859 | relative viability (NCI-H1975; first compound 0.01 µM): 0.862 | relative viability (NCI-H1975; first compound 0.03162 µM): 0.998 | relative viability (NCI-H1975; first compound 0.1 µM): 1.02 | relative viability (NCI-H1975; first compound 0.3162 µM): 0.808 | relative viability (NCI-H1975; first compound 1 µM): 0.984 | relative viability (NCI-H1734; first compound 0.01 µM): 0.766 | relative viability (NCI-H1734; first compound 0.03162 µM): 0.678 | relative viability (NCI-H1734; first compound 0.1 µM): 0.699 | relative viability (NCI-H1734; first compound 0.3162 µM): 0.61 | relative viability (NCI-H1734; first compound 1 µM): 0.642 | relative viability (NCI-H1563; first compound 0.01 µM): 0.809 | relative viability (NCI-H1563; first compound 0.03162 µM): 0.795 | relative viability (NCI-H1563; first compound 0.1 µM): 0.848 | relative viability (NCI-H1563; first compound 0.3162 µM): 0.711 | relative viability (NCI-H1563; first compound 1 µM): 0.82 | relative viability (HCC-366; first compound 0.01 µM): 0.457 | relative viability (HCC-366; first compound 0.03162 µM): 0.506 | relative viability (HCC-366; first compound 0.1 µM): 0.66 | relative viability (HCC-366; first compound 0.3162 µM): 0.471 | relative viability (HCC-366; first compound 1 µM): 0.598 | relative viability (COR-L23; first compound 0.01 µM): 0.62 | relative viability (COR-L23; first compound 0.03162 µM): 0.732 | relative viability (COR-L23; first compound 0.1 µM): 0.819 | relative viability (COR-L23; first compound 0.3162 µM): 0.638 | relative viability (COR-L23; first compound 1 µM): 0.597 | relative viability (NCI-H2023; first compound 0.01 µM): 0.574 | relative viability (NCI-H2023; first compound 0.03162 µM): 0.589 | relative viability (NCI-H2023; first compound 0.1 µM): 0.663 | relative viability (NCI-H2023; first compound 0.3162 µM): 0.616 | relative viability (NCI-H2023; first compound 1 µM): 0.586 | relative viability (NCI-H358; first compound 0.01 µM): 0.498 | relative viability (NCI-H358; first compound 0.03162 µM): 0.546 | relative viability (NCI-H358; first compound 0.1 µM): 0.794 | relative viability (NCI-H358; first compound 0.3162 µM): 0.658 | relative viability (NCI-H358; first compound 1 µM): 0.535 | relative viability (NCI-H441; first compound 0.01 µM): 0.841 | relative viability (NCI-H441; first compound 0.03162 µM): 0.785 | relative viability (NCI-H441; first compound 0.1 µM): 1.09 | relative viability (NCI-H441; first compound 0.3162 µM): 0.679 | relative viability (NCI-H441; first compound 1 µM): 0.756 | relative viability (NCI-H1650; first compound 0.03162 µM): 0.906 | relative viability (NCI-H1650; first compound 0.1 µM): 0.872 | relative viability (NCI-H1650; first compound 0.3162 µM): 0.826 | relative viability (NCI-H1650; first compound 1 µM): 0.921 | relative viability (NCI-H1355; first compound 0.01 µM): 1.17 | relative viability (NCI-H1355; first compound 0.03162 µM): 1.12 | relative viability (NCI-H1355; first compound 0.3162 µM): 1.11 | relative viability (NCI-H1355; first compound 1 µM): 0.941 | relative viability (NCI-H460; first compound 0.01 µM): 0.822 | relative viability (NCI-H460; first compound 0.03162 µM): 0.99 | relative viability (NCI-H460; first compound 0.1 µM): 0.988 | relative viability (NCI-H460; first compound 0.3162 µM): 1.1 | relative viability (NCI-H460; first compound 1 µM): 0.922 | relative viability (LU99A; first compound 0.01 µM): 0.647 | relative viability (LU99A; first compound 0.03162 µM): 0.574 | relative viability (LU99A; first compound 0.1 µM): 0.577 | relative viability (LU99A; first compound 0.3162 µM): 0.535 | relative viability (LU99A; first compound 1 µM): 0.573 | relative viability (NCI-H2085; first compound 0.01 µM): 0.941 | relative viability (NCI-H2085; first compound 0.03162 µM): 0.89 | relative viability (NCI-H2085; first compound 0.1 µM): 0.879 | relative viability (NCI-H2085; first compound 0.3162 µM): 0.841 | relative viability (NCI-H2085; first compound 1 µM): 0.889 | relative viability (CAL-12T; first compound 0.01 µM): 0.58 | relative viability (CAL-12T; first compound 0.03162 µM): 0.657 | relative viability (CAL-12T; first compound 0.1 µM): 0.767 | relative viability (CAL-12T; first compound 0.3162 µM): 0.591 | relative viability (CAL-12T; first compound 1 µM): 0.775
